Legend:
Assay type in all cases: cell-based
ROS = ROS labeling by cytometry after H2O2; conditions: Homo sapiens, ARPE-19; for inhibition at 1 µM: 1 μM compound then 200 μM H2O2 for 2 h, read-out: C. ROS inhibition 1 μM - ARPE-19 cells; for inhibition at 5 µM: 5 μM compound then 200 μM H2O2 for 2 h, read-out: B. ROS inhibition 5 μM - ARPE-19 cells
Method: ARPE-19 cells were treated with MCK349 30 minutes then with 200 μM H2O2 for 2 h. 10 μM DCF-DA (2′,7′-Dichlorofluorescein diacetate) were added on cell media for 30 min. Cells were rinsed then detached (trypsin) and resuspended in PBS 0.5% BSA and 2 mM EDTA. The cells are analyzed by cytometry (ROS labeled with DCFDA-FITC).
(§1) All compounds were evaluated in different experiments. Results are represented as the mean of three independent experiments. A. ARPE-19 cells were treated with dose response of compound for 48 h. Values are reported as IC50 measured with the XTT assay. B and C. ARPE-19 cells were treated with 5 μM (B) or 1 μM (C) compound then with 200 μM H2O2 for 2 h. ROS were analyzed by cytometry. […] As illustrated in FIG. 1A. D. ARPE-19 cells were treated with 2.5 μM compound for 48 h and the level of CXCL1 mRNA was evaluated by qPCR. […] As illustrated in FIG. 1B. E. TIME cells were pre-treated with 2.5 μM compound for 1 h then stimulated with 100 ng/ml CXCL8 for 15 min p-ERK levels were analyzed by immunoblotting. HSP90 served as loading control. […] As illustrated in FIG. 1C.

ARPE-19 cells = test: Cell viability (XTT assay); conditions: Homo sapiens, 48 h, read-out: A. Safety IC50 on ARPE-19 cells
Method: ARPE-19 cells were incubated in a 96-well plate with different effectors for 48 hours. Fifty microliters of sodium 3′-[1-phenylaminocarbonyl)-3,4-tetrazolium]-bis(4-methoxy-6-nitro) benzene sulfonic acid hydrate (XTT) reagent was added to each well. The test is based on the cleavage of the yellow tetrazolium salt XTT to form an orange formazan dye by metabolically active cells. This bio-reduction occurs in viable cells only and is associated with NAD(P)H production through glycolysis. Therefore, the amount of formazan dye measured at 490 nm, correlates directly with the number of metabolically active cells reflecting cell proliferation, viability, and cytotoxicity. Each assay was performed in quadruplicate.
as §1

ERK activation (p-ERK) = test: p-ERK immunoblotting after CXCL8 stimulation; conditions: 2.5 μM compound 1 h then 100 ng/ml CXCL8 for 15 min; read-out: E. p-ERK inhibition - TIME
Method: Cells were lysed in buffer containing 3% SDS, 10% glycerol and 0.825 mM Na2HPO4. 30 to 50 μg of proteins separated on 10% SDS-PAGE, transferred onto a PVDF membrane and then exposed to the appropriate antibodies. Proteins were visualized with the ECL system using horseradish peroxidase-conjugated anti-rabbit or anti-mouse antibodies.
as §1

SMILES | inhibition at 1 µM (ROS) [%] | inhibition at 5 µM (ROS) [%] | IC50 (ARPE-19 cells) [µM] | inhibition at 2.5 µM (ERK activation (p-ERK)) [%]
CC(C)c1ccc(Cn2nc(Nc3ccc(Cl)c(Cl)c3)nc2N)cc1 [MCK350, N^3-(3,4-dichlorophenyl)-1-(4-isopropylbenzyl)-1H-1,2,4-triazole-3,5-diamine] | ≥ 50 | ≥ 50 | > 25 | ≥ 50
COc1cccc(Cn2nc(Nc3ccccc3)nc2N)c1 [MCK261, 1-(3-methoxybenzyl)-N^3-phenyl-1H-1,2,4-triazole-3,5-diamine] | < 50 | ≥ 50 | > 25 | ≥ 50
Nc1nc(Nc2ccccn2)nn1Cc1c(Cl)cccc1Cl [MCK278, 1-(2,6-dichlorobenzyl)-N^3-(pyridin-2-yl)-1H-1,2,4-triazole-3,5-diamine] | < 50 | < 50 | > 25 | ≥ 50
Cc1ccc(Cn2nc(Nc3ccccc3)nc2N)cc1 [MCK271, 1-(4-methylbenzyl)-N^3-phenyl-1H-1,2,4-triazole-3,5-diamine] | ≥ 50 | ≥ 50 | > 25 | ≥ 50
Nc1nc(Nc2ccccn2)nn1Cc1ccccc1[N+](=O)[O-] [MCK289, 1-(2-nitrobenzyl)-N^3-(pyridin-2-yl)-1H-1,2,4-triazole-3,5-diamine] | ≥ 50 | ≥ 50 | > 25 | < 50
COc1cc(Cn2nc(Nc3ccccc3)nc2N)cc(OC)c1OC [MCK298, N^3-phenyl-1-(3,4,5-trimethoxybenzyl)-1H-1,2,4-triazole-3,5-diamine] | < 50 | < 50 | > 25 | ≥ 50
Nc1nc(Nc2ccccc2)nn1Cc1ccc(Cl)cc1 [MCK272, 1-(4-chlorobenzyl)-N^3-phenyl-1H-1,2,4-triazole-3,5-diamine] | < 50 | ≥ 50 | > 25 | ≥ 50
Nc1nc(Nc2ccccc2)nn1Cc1cccc(Br)c1 [MCK264, 1-(3-bromobenzyl)-N^3-phenyl-1H-1,2,4-triazole-3,5-diamine] | ≥ 50 | ≥ 50 | > 25 | ≥ 50
Nc1nc(Nc2ccc(Br)cc2)n(Cc2cccc(Br)c2)n1 [MCK345, 1-(3-bromobenzyl)-N^5-(4-bromophenyl)-1H-1,2,4-triazole-3,5-diamine] | ≥ 50 | ≥ 50 | > 25 | ≥ 50
Nc1nc(Nc2ccccc2)nn1Cc1ccc([N+](=O)[O-])cc1 [MCK288] | ≥ 50 | ≥ 50 | > 25 | < 50
Nc1nc(Nc2ccccc2)n(Cc2cccc(Br)c2)n1 [MCK339, 1-(3-bromobenzyl)-N^5-phenyl-1H-1,2,4-triazole-3,5-diamine] | < 50 | ≥ 50 | > 25 | < 50
Nc1nc(Nc2ccccn2)nn1Cc1ccc(Cl)cc1 [MCK280, 1-(4-chlorobenzyl)-N^3-(pyridin-2-yl)-1H-1,2,4-triazole-3,5-diamine] | < 50 | < 50 | > 25 | ≥ 50
Nc1nc(Nc2ccccn2)nn1Cc1cccc(Br)c1 [MCK276, 1-(3-bromobenzyl)-N^3-(pyridin-2-yl)-1H-1,2,4-triazole-3,5-diamine] | < 50 | < 50 | > 25 | ≥ 50
Nc1nc(Nc2ccccc2)nn1Cc1cccc(C(F)(F)F)c1 [MCK273, N^3-phenyl-1-(3-(trifluoromethyl)benzyl)-1H-1,2,4-triazole-3,5-diamine] | ≥ 50 | ≥ 50 | > 25 | ≥ 50
Nc1nc(Nc2ccccn2)nn1Cc1c(F)cccc1F [MCK259, 1-(2,6-difluorobenzyl)-N^3-(pyridin-2-yl)-1H-1,2,4-triazole-3,5-diamine] | < 50 | < 50 | > 25 | ≥ 50
Nc1nc(Nc2ccc(Br)cc2)nn1Cc1cccc(Br)c1 [MCK346, 1-(3-bromobenzyl)-N^3-(4-bromophenyl)-1H-1,2,4-triazole-3,5-diamine] | ≥ 50 | ≥ 50 | > 25 | ≥ 50
Cc1ccccc1Cn1nc(Nc2ccccc2)nc1N [MCK250, 1-(2-methylbenzyl)-N^3-phenyl-1H-1,2,4-triazole-3,5-diamine] | ≥ 50 | ≥ 50 | > 25 | < 50
Nc1nc(Nc2ccccc2)nn1Cc1ccccc1 [MCK249, 1-benzyl-N^3-phenyl-1H-1,2,4-triazole-3,5-diamine] | < 50 | ≥ 50 | > 25 | < 50
N#Cc1ccc(Cn2nc(Nc3ccccn3)nc2N)cc1 [MCK281, 4-((5-amino-3-(pyridin-2-ylamino)-1H-1,2,4-triazol-1-yl)methyl)benzonitrile] | < 50 | < 50 | > 25 | ≥ 50
Nc1nc(Nc2ccccc2)n(Cc2c(F)cccc2F)n1 [MCK257, 1-(2,6-difluorobenzyl)-N^5-phenyl-1H-1,2,4-triazole-3,5-diamine] | ≥ 50 | ≥ 50 | > 25 | ≥ 50
COc1ccc(Nc2nc(N)n(Cc3cccc(Br)c3)n2)cc1 [MCK340, 1-(3-bromobenzyl)-N^3-(4-methoxyphenyl)-1H-1,2,4-triazole-3,5-diamine] | < 50 | < 50 | > 25 | < 50
COC(=O)c1ccc(Nc2nc(N)nn2Cc2cccc(Br)c2)cc1 [MCK347, methyl-4-((3-amino-1-(3-bromobenzyl)-1H-1,2,4-triazol-5-yl)amino)benzoate] | < 50 | < 50 | > 25 | ≥ 50
Nc1nc(Nc2ccccn2)nn1CC(=O)c1cccc([N+](=O)[O-])c1 [MCK295, 2-(5-amino-3-(pyridin-2-ylamino)-1H-1,2,4-triazol-1-yl)-1-(3-nitrophenyl)ethan-1-one] | < 50 | < 50 | > 25 | ≥ 50
Nc1nc(Nc2ccccc2)nn1CCc1ccccc1 [MCK301, 1-phenethyl-N^3-phenyl-1H-1,2,4-triazole-3,5-diamine] | < 50 | < 50 | > 25 | < 50
Nc1nc(Nc2ccccn2)nn1Cc1ccccc1 [MCK253, 1-benzyl-N^3-(pyridin-2-yl)-1H-1,2,4-triazole-3,5-diamine] | < 50 | < 50 | > 25 | < 50

Source: patent US20260284014A1, “3,5-DIAMINOTRIAZOLE DERIVATIVES AND USES THEREOF FOR TREATING OCULAR DISEASES” (CENTRE NATIONAL DE LA RECHERCHE SCIENTIFIQUE, priority 2023, published 2026)
